Patent US7018642B2 (The Procter & Gamble Company, priority 2001, dated 2006)

Each compound was assayed on P. fluorescens strain ATCC 13525 (assay: Biofilm prevention screen (96-well microplate, crystal violet)). Conditions: Pseudomonas fluorescens, ATCC13525, 32 μM, positive = prevention, negative = enhancement of biofilm formation, quadruplicate, read-out: average percentage reduction of biofilm formed relative to DMSO controls.
Format: cell-based
Procedure: (§1) Overnight cultures of 3 mL are made of P. aeruginosa strain PAO1 (grown in R2A medium (Handbook of Microbiological Media; CRC Press, 1997, second edition, R. M. Atlas, ed.), modified to omit Mg^2+ but to include 0.3–0.5% fructose (pH 7.0) and 3 μM ferrous ammonium sulfate), P. fluorescens strain ATCC 13525 (grown in R2A modified to omit Mg^2+ but to include 0.3–0.5% sodium pyruvate (pH 7.0)), S. epidermidis strain ATCC 35984 (grown in a ¼ dilution of TSB (Handbook of Microbiological Media; CRC Press, 1997, second edition, R. M. Atlas, ed.) supplemented with 1% fructose (pH 7.0) and 3 μM ferrous ammonium sulfate). To each type of growth medium, HEPES (pH 7.3) is optionally added to a final concentration of 10 mM.
(§2) To PS, PVC, or PP (preferably PP or PVC) round-bottom, 96-well microplates containing 100 μl per well of the respective growth medium as described above, compounds to be tested (dissolved in DMSO) are added and mixed, to give a final concentration of 250–500 μM. These microplates then also are used to make successive dilutions of the compounds in the same respective growth medium to yield microplates containing final concentrations of, for example, 160 μM and 32 μM of the same set of compounds. Control wells are included in the dilution series that contain only DMSO. From the 3 ml overnight cultures, each of the three dilution plate sets is inoculated with 5 μl per well of a 1:1 dilution in the same liquid growth media of the appropriate culture. The covered plate is then incubated with shaking, at 30° C. (for P. aeruginosa or P. fluorescens) or 37° C. (for S. epidermidis), at 200 rpm, for 16–26 hours, in a humidity controlled environment.
(§3) Cells present in biofilm attached to the microplate surface are stained with CV either after removal of the liquid from each well, followed by rinsing three times (aspiration and addition) with 150 μl per well phosphate buffered saline solution (PBS) and final addition of 100 μl per well of PBS, or by direct addition of stain to bacterial cultures without rinsing. To 100 μl per well of PBS or of bacterial culture, 25 μl/well of 1% CV solution (in ˜10% ethanol) is added. After incubation at room temperature for 45 minutes, the dye solution is removed from the plates. Residual dye is immediately removed by gentle rinsing with a stream of deionized water by filling and inverting the plates 4–5 times, or by using an automated pipettor. Rinsed plates are air-dried at room temperature for 0.5–2 hours. Bound dye is extracted by the addition of 150 μL per well of 95% ethanol, followed by vigorous mixing for 10–15 seconds and incubation for 45 minutes at room temperature without shaking. Subsequently, either undiluted or diluted (in ethanol) samples of extracted CV are transferred to flat bottom, polystyrene microtiter plates and absorbances at 586 nm were measured in a microplate reader. Readings from wells containing compounds are compared to the average of data from control wells that contain only DMSO. Replicate samples are measured, and results are reported as averages of the replicate well data points.
(§4) Data are expressed in terms of the average percentage reduction of biofilm formed in the presence of each compound, relative to the DMSO controls, for quadruplicate samples. Assays are run using the three compound concentrations indicated. Positive numbers indicate prevention of biofilm formation by a compound, and negative numbers indicate enhancement of biofilm formation by a compound (percentage coefficients of variation are ≦10%).
For `CCCCCCNC(=O)[C@@H]1CCCN1C(=O)OC(C)(C)C` [Compound 10], the inhibition at 32 µM was -1%.
Work on `CCCCCCCCCCCCNC(=O)[C@H]1CCCN1C(=O)OC(C)(C)C` [Compound 159] yielded an inhibition at 32 µM of -1%.

Same assay, conditions: Pseudomonas fluorescens, ATCC13525, 160 μM, positive = prevention, negative = enhancement of biofilm formation, quadruplicate, read-out: average percentage reduction of biofilm formed relative to DMSO controls
`CCCCCCNC(=O)[C@@H]1CCCN1C(=O)OC(C)(C)C` [Compound 10] was tested, and the inhibition at 160 µM was -5%.
Work on `CCCCCCCCCCCCNC(=O)[C@H]1CCCN1C(=O)OC(C)(C)C` [Compound 159] yielded an inhibition at 160 µM of -3%.

Same assay, conditions: Pseudomonas fluorescens, ATCC13525, 390 μM, positive = prevention, negative = enhancement of biofilm formation, quadruplicate, read-out: average percentage reduction of biofilm formed relative to DMSO controls
In the case of `CCCCCCNC(=O)[C@@H]1CCCN1C(=O)OC(C)(C)C` [Compound 10], the inhibition at 390 µM is reported as -6%.
In the case of `CCCCCCCCCCCCNC(=O)[C@H]1CCCN1C(=O)OC(C)(C)C` [Compound 159], the inhibition at 390 µM is reported as -13%.

The compounds below were run on P. aeruginosa strain PAO1 in the same assay as above. Conditions: Pseudomonas aeruginosa, 32 μM, positive = prevention, negative = enhancement of biofilm formation, quadruplicate, read-out: average percentage reduction of biofilm formed relative to DMSO controls.
Format: cell-based
Procedure: as §1, §2, §3, §4
In the case of `CCCCCCNC(=O)[C@@H]1CCCN1C(=O)OC(C)(C)C` [Compound 10], the inhibition at 32 µM is reported as -7%.
`CCCCCCCCCCCCNC(=O)[C@H]1CCCN1C(=O)OC(C)(C)C` [Compound 159] was tested, and the inhibition at 32 µM was -9%.

Same assay, conditions: Pseudomonas aeruginosa, 160 μM, positive = prevention, negative = enhancement of biofilm formation, quadruplicate, read-out: average percentage reduction of biofilm formed relative to DMSO controls
With `CCCCCCNC(=O)[C@@H]1CCCN1C(=O)OC(C)(C)C` [Compound 10] the inhibition at 160 µM was -16%.
With `CCCCCCCCCCCCNC(=O)[C@H]1CCCN1C(=O)OC(C)(C)C` [Compound 159] the inhibition at 160 µM was -38%.

Same assay, conditions: Pseudomonas aeruginosa, 390 μM, positive = prevention, negative = enhancement of biofilm formation, quadruplicate, read-out: average percentage reduction of biofilm formed relative to DMSO controls
For `CCCCCCNC(=O)[C@@H]1CCCN1C(=O)OC(C)(C)C` [Compound 10], the inhibition at 390 µM was -16%.
`CCCCCCCCCCCCNC(=O)[C@H]1CCCN1C(=O)OC(C)(C)C` [Compound 159] gave an inhibition at 390 µM of -50%.

Each compound was assayed on S. epidermidis strain ATCC 35984 in the same assay as above. Conditions: Staphylococcus epidermidis, ATCC35984, 32 μM, positive = prevention, negative = enhancement of biofilm formation, quadruplicate, read-out: average percentage reduction of biofilm formed relative to DMSO controls.
Format: cell-based
Procedure: as §1, §2, §3, §4
With `CCCCCCNC(=O)[C@@H]1CCCN1C(=O)OC(C)(C)C` [Compound 10] the inhibition at 32 µM was -18%.
With `CCCCCCCCCCCCNC(=O)[C@H]1CCCN1C(=O)OC(C)(C)C` [Compound 159] the inhibition at 32 µM was -9%.

Same assay, conditions: Staphylococcus epidermidis, ATCC35984, 160 μM, positive = prevention, negative = enhancement of biofilm formation, quadruplicate, read-out: average percentage reduction of biofilm formed relative to DMSO controls
In the case of `CCCCCCNC(=O)[C@@H]1CCCN1C(=O)OC(C)(C)C` [Compound 10], the inhibition at 160 µM is reported as -17%.
`CCCCCCCCCCCCNC(=O)[C@H]1CCCN1C(=O)OC(C)(C)C` [Compound 159] showed an inhibition at 160 µM of -20%.

Same assay, conditions: Staphylococcus epidermidis, ATCC35984, 390 μM, positive = prevention, negative = enhancement of biofilm formation, quadruplicate, read-out: average percentage reduction of biofilm formed relative to DMSO controls
In the case of `CCCCCCNC(=O)[C@@H]1CCCN1C(=O)OC(C)(C)C` [Compound 10], the inhibition at 390 µM is reported as -25%.
`CCCCCCCCCCCCNC(=O)[C@H]1CCCN1C(=O)OC(C)(C)C` [Compound 159] gave an inhibition at 390 µM of -3%.

The compounds below were run on P. fluorescens strain ATCC 13525 (assay: Improved biofilm dispersion screen (already-formed biofilms, crystal violet)). Conditions: Pseudomonas fluorescens, ATCC13525, 20 mM NaOH step, positive = dispersion, negative = enhancement of pre-existing biofilm, quadruplicate, read-out: average percentage reduction of biofilm relative to the two control values (dispersion).
Format: cell-based
Procedure: (§5) A modification of method disclosed in Reference Example 2, which greatly improves the sensitivity and reproducibility of the dispersion screen is hereby disclosed. […] In the modification described herein, compounds are added in the presence of the fresh liquid growth media, such that the resultant biofilms continue to grow, unless a test compound triggers their dispersion. Overnight cultures are made as above, and 100 μL of the appropriate liquid growth media are dispensed into duplicate 96 well microplates—in this fashion, two identical microplates are set up for each bacterial species to be assayed. Neither compounds nor DMSO are added prior to the inoculation of bacteria, and growth in the duplicate plates for 24 hours is allowed using the conditions specified in Reference Example 1. After growth of biofilm to be tested in the wells, cells present in biofilm attached to one of the duplicate microplates is stained with CV, quantitated as described in Reference Example 1, and the data for the entire plate averaged, resulting in a growth control value, t0. The remaining replicate of each microplate pairs is treated with compounds in DMSO, or DMSO alone for control wells, by first removing the cell suspensions from the wells, then adding fresh 100 μL volumes of the same appropriate liquid growth media, followed by direct addition and mixing of the compound DMSO solutions to give final compound concentrations of 390 μM. Incubation of the compound-containing microplates is then continued for an additional 22–26 hours using the same conditions described in Reference Example 1. Cell suspensions are then removed, 100 μL per well of a 0 mM NaOH (S. epidermidis), 20 mM NaOH (P. fluorescens), or 30 mM NaOH (P. aeruginosa) solution in PBS is added, and incubation at room temperature is allowed for 30 minutes. No addition of NaOH is made to the S. epidermidis suspension since a test assay indicated no amplification by base with S. epidermidis. The microplates are subsequently rinsed three times with 150 μL per well of PBS, followed by final liquid removal, staining with CV and quantitation as described in Reference Example 1. Data for each well that contained compound result in a compound value, R, and data for control wells that contained DMSO only are averaged to generate a second control value, t24. The effect of each compound tested on dispersion of the biofilm compared to the two control values is calculated thus: [formula] […] Data are expressed in terms of the average percentage reduction of biofilm formed in the presence of each compound, relative to the two control values, for quadruplicate samples. Assays are run as described above, using compound concentrations of 390 μM. Positive numbers indicate dispersion (reduction) of pre-existing biofilms by a compound, and negative numbers indicate enhancement (stimulation of growth) of pre-existing biofilms by a compound (percentage coefficients of variation are ≦15%).
In the case of `CCCCCCNC(=O)[C@@H]1CCCN1C(=O)OC(C)(C)C` [Compound 10], the inhibition at 390 µM is reported as -2%.
In the case of `CCCCCCCCCCCCNC(=O)[C@H]1CCCN1C(=O)OC(C)(C)C` [Compound 159], the inhibition at 390 µM is reported as -94%.

Each compound was assayed on P. aeruginosa strain PAO1 in the same assay as above. Conditions: Pseudomonas aeruginosa, 30 mM NaOH step, positive = dispersion, negative = enhancement of pre-existing biofilm, quadruplicate, read-out: average percentage reduction of biofilm relative to the two control values (dispersion).
Format: cell-based
Procedure: as §5
`CCCCCCNC(=O)[C@@H]1CCCN1C(=O)OC(C)(C)C` [Compound 10] gave an inhibition at 390 µM of -9%.
`CCCCCCCCCCCCNC(=O)[C@H]1CCCN1C(=O)OC(C)(C)C` [Compound 159] was tested, and the inhibition at 390 µM was -55%.

What follows are compounds tested on S. epidermidis strain ATCC 35984 in the same assay as above. Conditions: Staphylococcus epidermidis, ATCC35984, no NaOH, positive = dispersion, negative = enhancement of pre-existing biofilm, quadruplicate, read-out: average percentage reduction of biofilm relative to the two control values (dispersion).
Format: cell-based
Procedure: as §5
With `CCCCCCNC(=O)[C@@H]1CCCN1C(=O)OC(C)(C)C` [Compound 10] the inhibition at 390 µM was -6%.
In the case of `CCCCCCCCCCCCNC(=O)[C@H]1CCCN1C(=O)OC(C)(C)C` [Compound 159], the inhibition at 390 µM is reported as 0%.
